Like-named read-outs stand apart in the source and are kept apart here.
Assays:
[1] = test system: injured cartilage explants, GAG release; assay: drop tower design model: GAG release; assay type: cell-based, bovine; conditions: injured cartilage explants, inflammatory conditions
Excerpt: The device comprises a vertical rail that guides a sliding weight from 0.1 kg to 3 kg directly onto a force transducer which is situated at the bottom of the device. A sphere-shaped 2 mm indenter resting on a specimen is located at the bottom of the vertical rail. The indenter is held by a stop screw. The specimen is rigidly attached to a tissue holder underneath the indenter, to avoid side movements, the specimen is rigidly attached to the tissue holder. In this manner, the force transducer transduces a force indirectly onto the specimen. Adjusting the weight of a mass and height from which the mass drops varies the magnitude of the intended impact. For example, a weight mass (e.g., […]) held by a weight holder can be released from a height of e.g., 36 cm and dropped onto the force transducer.
Samples for compound evaluation were tested using either of two different methods to induce inflammatory conditions. One method utilized media conditioned from peripheral blood mononuclear cells (PBMCs) stimulated with LPS (“+LPS”) or non-inflammatory media without LPS (“−LPS”). Another method utilized the absence or presence of a cocktail of cytokines.
In the first method, bovine or human PBMCs were freshly prepared using Ficoll gradient by Lampire Biological Laboratories, Inc. PBMCs in RPMI w/10% FCS at delivery were spun down at 1500 rpm for twenty minutes and the cell pellet was washed twice with 1×PBS to wash off the residual Ficoll. The cells were then resuspended at a density of 1×10^6/ml in RPMI supplemented with 10% FCS, 1× Antibiotics-Antimycotics. The suspension was divided into two aliquots. One aliquot was stimulated with 10 μg/ml of LPS and the other was not stimulated. Both aliquots were then incubated at 37° C., 5% CO2 for twenty-four to seventy-two hours. The conditioned media with or without LPS stimulation are collected, aliquoted, and stored in −80° C. for a maximum of three months. Each conditioned medium was assessed for levels of pro-inflammatory cytokines to ensure their secretion from PBMC. A representative cytokine, IL-6, was assayed by ELISA using a Human IL-6 Quantikine kit and it was shown that the LPS-stimulated medium had at least 10 ng/ml of IL-6, while IL-6 was undetectable in the unstimulated medium.
In the second method, the explants were cultured at 37° C., 5% CO2 either in stimulated or non-stimulated conditioned medium as described above or in defined medium containing DMEM supplemented with 1% FCS, 1× insulin-transferrin-sodium selenite media supplement and Antibiotics-Antimycotics in the presence or absence of a cocktail of cytokines containing 10 ng/ml of IL-1β, 100 ng/ml of TNFα and 5 ng/ml of IFN-γ. The compounds were solubilized in H2O, Ethanol or DMSO (10^−2 M) according to suppliers' instructions and further diluted with either conditioned medium stimulated with or without LPS to the required concentrations. DMSO concentrations in the culture media never exceeded 1%. This concentration of DMSO has no effect on cartilage proteoglycan metabolism in response to cytokines. The injured and noninjured cartilage explants were treated with compound-containing medium for three to five days. The specimens were first treated with compounds at desired concentrations at 37° C. for one hour and then incubated for three to five days in the absence or presence of the cocktail of cytokines. At the end of the incubation, media and cartilage samples were harvested and frozen for further analysis.
Glycosaminoglycan (GAG) levels in the culture media or cartilage were determined by measuring the amount of polyanionic material reacting with 1,9-dimethylmethylene blue (DME) as detected by absorbance at 525 nm, using shark chondroitin sulfate as a standard. The DME blue dye-binding solution was prepared by dissolving 16 mg of DME blue in a solution containing 0.304% glycine, 0.23% NaCl, 9.5 mM HCl, pH=3.0 with A525 equaling 0.31. […]

[2] = solubility; assay type: physicochemical
[3] = assay type: physicochemical
Experimental: JNJ 3026582 (RWJ 67657) was gamma irradiated on dry ice at a dose of 15 kgray. Then the sterile drug was aseptically mixed with ORTHOVISC® in the concentrations of 10 μg/mL and 100 μg/mL. Drug content uniformity was confirmed by reverse phase HPLC. There was approximately 100% drug stability.
JNJ 17089540 (RWJ 669307) was gamma irradiated on dry ice at a dose of 15 kgray. The sterile drug as aseptically mixed with ORTHOVISC® in the concentrations of 1 ug/uL and 10 ug/uL. Drug content uniformity was confirmed by reverse phase HPLC. There was approximately 100% drug stability.
Suprofen was gamma irradiated on dry ice at dose of 15 kgray. The sterile drug was aseptically mixed with ORTHOVISC® in the concentration of 1.3 ug/uL. Drug content uniformity at time of preparation and stability of 4 months at 4° C. was confirmed by reverse phase HPLC that there was around 100% drug stability.

| Compound | GAG, inhibition of degradation/release [1] | water solubility [2] | drug stability [3] | also measured |
| --- | --- | --- | --- | --- |
| C[C@H](Nc1nccc(-c2c(-c3ccc(F)cc3)nc3nc(N)ccn23)n1)c1ccccc1 [JNJ 7583979 (RWJ 351958)] | little efficacy | poor water solubility | – | GAG, inhibition of degradation/release ([1]; listed as JNK 7583979 (RWJ 351958)): little |
| OCCC#Cc1nc(-c2ccc(F)cc2)c(-c2ccncc2)n1CCCc1ccccc1 [JNJ 3026582 (RWJ 67657), 4-[4-(4-fluorophenyl)-1-(3-phenylpropyl)-5-(4-pyridinyl)-1H-imidazol-2-yl]-3-butyn-1-ol] | little efficacy | poor water solubility | approximately 100% | pH at which soluble ([2]; soluble at pH<2): < 2 |
| CC(C(=O)O)c1ccc(C(=O)c2cccs2)cc1 (centres unmarked) [Suprofen, reference compound] | – | – | – | drug stability ([3]; 4 months, 1.3 ug/uL): around 100% |
| CC(=O)Oc1cccc2c1C(=O)c1c(OC(C)=O)cc(C(=O)O)cc1C2=O [Diacerein, reference compound] | completely inhibited | – | – | – |
| CC(=O)N1CCN(c2c(-c3ccncc3)c(-c3ccc(F)cc3)c(C#N)n2C)CC1 [JNJ 17089540 (RWJ 669307)] | – | – | approximately 100% | water solubility ([2]; HCl salt): > 100 mg/mL |

Source: patent US8986696B2, “Trans-capsular administration of p38 map kinase inhibitors into orthopedic joints” (DePuy Mitek, Inc., priority 2007, dated 2015)
